Results on 24 molecules are retold here after patent US10202368B2, “CXCR7 receptor modulators” (IDORSIA PHARMACEUTICALS LTD, priority 2014, dated 2019).

pEC50: −log10 of the molar value.

Sequence of CXCR7 (P25106 whole entry): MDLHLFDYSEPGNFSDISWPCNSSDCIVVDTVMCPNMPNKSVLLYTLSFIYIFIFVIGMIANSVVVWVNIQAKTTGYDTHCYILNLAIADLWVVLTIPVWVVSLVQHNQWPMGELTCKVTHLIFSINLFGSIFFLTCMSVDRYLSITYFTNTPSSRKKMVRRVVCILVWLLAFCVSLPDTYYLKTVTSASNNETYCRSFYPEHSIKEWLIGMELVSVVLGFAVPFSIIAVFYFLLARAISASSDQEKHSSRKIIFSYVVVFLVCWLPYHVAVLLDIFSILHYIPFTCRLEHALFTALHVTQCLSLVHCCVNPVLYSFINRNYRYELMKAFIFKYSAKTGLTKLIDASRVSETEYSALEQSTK
Sequence of CXCR7 (P32121 whole entry partner): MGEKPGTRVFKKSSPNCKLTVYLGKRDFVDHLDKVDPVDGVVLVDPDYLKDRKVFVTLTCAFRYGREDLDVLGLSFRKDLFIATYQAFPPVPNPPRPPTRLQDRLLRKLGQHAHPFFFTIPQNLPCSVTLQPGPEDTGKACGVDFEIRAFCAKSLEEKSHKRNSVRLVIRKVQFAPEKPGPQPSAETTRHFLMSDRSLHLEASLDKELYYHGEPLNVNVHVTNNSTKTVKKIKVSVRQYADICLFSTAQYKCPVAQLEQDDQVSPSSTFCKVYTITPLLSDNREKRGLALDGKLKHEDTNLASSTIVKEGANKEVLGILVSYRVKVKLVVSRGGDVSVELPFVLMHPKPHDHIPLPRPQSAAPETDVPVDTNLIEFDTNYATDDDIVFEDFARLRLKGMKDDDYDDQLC

The assay deals with CXCR7 (Homo sapiens (Human), UniProt P25106). The experiment in a line: PathHunter CHO-K1 CXCR7 β-arrestin assay (agonistic activity). To be noted: β-arrestin recruitment in PathHunter CHO-K1 CXCR7 β-arrestin cells, 90 minutes at 37° C., geometric mean values. It counts as cell-based. The method, then:
The CXCI12 receptor and CXCR7 agonistic activities of the compounds of formula (I) are determined in accordance with the following experimental method.
The assay is using the PathHunter™ CHO-K1 CXCR7 β-arrestin cell line from DiscoverX. The system is based on the Enzyme Fragment Complementation Technology. Two complementing fragments of the β-galactosidase enzyme are expressed within stably transfected cells. The larger portion of β-gal, termed EA for Enzyme Acceptor, is fused to the C-terminus of b-arrestin 2. The smaller fragment, termed ProLink™ tag, is fused to CXCR7 at the C-terminus. Upon activation, b-arrestin is recruited which forces the interaction of ProLink and EA, allowing complementation of the two fragments of b-gal and the formation of a functional enzyme which is capable of hydrolysing the substrate and generating a chemiluminescent signal.
CHO-K1 CXCR7 β-arrestin cells are detached from culture dishes with a cell dissociation buffer (Invitrogen, #13151-014) and collected in growing medium (F12 HAMS 90% (v/v)/FCS 10% (v/v), Penicillin/streptomycin 1% (v/v)). 5000 cells per well (in 20 μl) are seeded in a 384 well plate (white-walled, clear bottom; BD Falcon #353274). The plate is incubated at 37° C./5% CO2 for 24 hours. Medium is then replaced by 20 μl OPTIMEM (Invitrogen #31985) for 3 to 4 hours. Test compounds are dissolved at 10 mM in DMSO and serially diluted in DMSO to 200× of the final concentration for dose response curves. Compounds are then diluted 1:33.3 in HBSS1X. 5 μl/well of HBSS1X/20 mM HEPES/0.2% BSA are added to the assay plate followed by addition of 5 μl/well of diluted compounds. CXCL12 (Peprotech #300-28A) may be used as a reference agonist. The plate is incubated for 90 minutes at 37° C. 12 μl of detection reagent (Path Hunter Detection Kit, DiscoveRx, #93-0001) is transferred to the assay plate and to the plate is incubated for 1 hour at room temperature. Luminescent signal is read in a microplate reader (FLUOstar Optima, bmg). The calculated EC50 values may fluctuate depending on the daily cellular assay performance. Fluctuations of this kind are known to those skilled in the art. Average EC50 values from several measurements are given as geometric mean values.
(Recruitment of arrestin is a read-out of receptor activation apart from second messengers.)
`Cc1cccnc1CN(CCN(C)C)C(=O)CNc1cccc2c1CN(CC1CC1)CCO2` [Example 87, 2-(4-Cyclopropylmethyl-2,3,4,5-tetrahydro-benzo[f][1,4]oxazepin-6-ylamino)-N-(2-dimethylamino-ethyl)-N-(3-methyl-pyridin-2-ylmethyl)-acetamide] showed a pEC50 of 7.64.
For `CN(C)CCN(Cc1ccccc1C(F)(F)F)C(=O)CNc1cccc2c1CCCN(CC1CC1)C2` [Example 28, 2-(2-Cyclopropylmethyl-2,3,4,5-tetrahydro-1H-benzo[c]azepin-6-ylamino)-N-(2-dimethylamino-ethyl)-N-(2-trifluoromethyl-benzyl)-acetamide], the pEC50 was 8.52.
Next, `CC(C)(C)NCCN(Cc1ccccc1C(F)(F)F)C(=O)CNc1cccc2c1C(=O)N(CC1CC1)CCO2` [Example 29, N-(2-tert-Butylamino-ethyl)-2-(4-cyclopropylmethyl-5-oxo-2,3,4,5-tetrahydro-benzo[f][1,4]oxazepin-6-ylamino)-N-(2-trifluoromethyl-benzyl)-acetamide]: 8.52.
In turn, `Cc1cccc(CN(CCN(C)C)C(=O)CNc2cccc3c2C(=O)N(CC2CC2)CCO3)n1` [Example 33, 2-(4-Cyclopropylmethyl-5-oxo-2,3,4,5-tetrahydro-benzo[f][1,4]oxazepin-6-ylamino)-N-(2-dimethylamino-ethyl)-N-(6-methyl-pyridin-2-ylmethyl)-acetamide] showed a pEC50 of 7.62.
In turn, `CCN1CCN(CC)c2c(NCC(=O)N(CCN3CCCC3)Cc3ncccc3C(F)(F)F)cccc2C1=O` [Example 48, 2-(1,4-Diethyl-5-oxo-2,3,4,5-tetrahydro-1H-benzo[e][1,4]diazepin-9-ylamino)-N-(2-pyrrolidin-1-yl-ethyl)-N-(3-trifluoromethyl-pyridin-2-ylmethyl)-acetamide] gave a pEC50 of 7.33.
Next, `CN1CCN(CC2CC2)Cc2cccc(NCC(=O)N(CCN3CCCC3)Cc3ncccc3C(F)(F)F)c21` [Example 51, 2-(4-Cyclopropylmethyl-1-methyl-2,3,4,5-tetrahydro-1H-benzo[e][1,4]diazepin-9-ylamino)-N-(2-pyrrolidin-1-yl-ethyl)-N-(3-trifluoromethyl-pyridin-2-ylmethyl)-acetamide]: 9.00.
Consider `CN(C)CCN(Cc1ccccc1Cl)C(=O)CNc1cccc2c1CN(CC1CC1)CCO2` [Example 86, N-(2-Chloro-benzyl)-2-(4-cyclopropylmethyl-2,3,4,5-tetrahydro-benzo[f][1,4]oxazepin-6-ylamino)-N-(2-dimethylamino-ethyl)-acetamide], for which the pEC50 was 7.85.
Next, `CN1CCN(CC2CC2)C(=O)c2cccc(NCC(=O)N(CCNC(C)(C)C)Cc3ccccc3C(F)(F)F)c21` [Example 43, N-(2-tert-Butylamino-ethyl)-2-(4-cyclopropylmethyl-1-methyl-5-oxo-2,3,4,5-tetrahydro-1H-benzo[e][1,4]diazepin-9-ylamino)-N-(2-trifluoromethyl-benzyl)-acetamide]: 8.40.
Consider `CCCN1CCOc2c(cccc2NCC(=O)N(CCN(C)C)Cc2ccccc2C(F)(F)F)C1` [Example 7, N-(2-Dimethylamino-ethyl)-2-(4-propyl-2,3,4,5-tetrahydro-benzo[f][1,4]oxazepin-9-ylamino)-N-(2-trifluoromethyl-benzyl)-acetamide], for which the pEC50 is 8.40.
In turn, `CC(C)CN1CCOc2c(cccc2NCC(=O)N(CCN2CCC(F)(F)CC2)Cc2ncccc2Cl)C1` [Example 13, N-(3-Chloro-pyridin-2-ylmethyl)-N-[2-(4,4-difluoro-piperidin-1-yl)-ethyl]-2-(4-isobutyl-2,3,4,5-tetrahydro-benzo[f][1,4]oxazepin-9-ylamino)-acetamide] showed a pEC50 of 7.06.
As to `CC(C)(C)NCCN(Cc1ccccc1C(F)(F)F)C(=O)CNc1cccc2c1OCCN(CC1CC1)C2` [Example 83, N-(2-tert-Butylamino-ethyl)-2-(4-cyclopropylmethyl-2,3,4,5-tetrahydro-benzo[f][1,4]oxazepin-9-ylamino)-N-(2-trifluoromethyl-benzyl)-acetamide], the pEC50 was 8.52.
The figure for `CC(C)CN1CCOc2c(cccc2NCC(=O)N(CCN2CCCC2)Cc2ccccc2Cl)C1` [Example 15, N-(2-Chloro-benzyl)-2-(4-isobutyl-2,3,4,5-tetrahydro-benzo[f][1,4]oxazepin-9-ylamino)-N-(2-pyrrolidin-1-yl-ethyl)-acetamide] is 7.96; for `CN(C)CCN(Cc1ccccc1C(F)(F)F)C(=O)CNc1cccc2c1CCN(C(=O)C(F)(F)F)CC2` [Example 26, N-(2-Dimethylamino-ethyl)-2-[3-(2,2,2-trifluoro-acetyl)-2,3,4,5-tetrahydro-1H-benzo[d]azepin-6-ylamino]-N-(2-trifluoromethyl-benzyl)-acetamide] it is 8.40; for `CCN1CCOc2c(cccc2NCC(=O)N(CCN(C)C)Cc2ncccc2C(F)(F)F)C1` [Example 72, N-(2-Dimethylamino-ethyl)-2-(4-ethyl-2,3,4,5-tetrahydro-benzo[f][1,4]oxazepin-9-ylamino)-N-(3-trifluoromethyl-pyridin-2-ylmethyl)-acetamide] it is 8.22.
Consider `CN(C)CCN(Cc1ccccc1C(F)(F)F)C(=O)CNc1cccc2c1OCC(=O)N(CC1CC1)C2` [Example 67, 2-(4-Cyclopropylmethyl-3-oxo-2,3,4,5-tetrahydro-benzo[f][1,4]oxazepin-9-ylamino)-N-(2-dimethylamino-ethyl)-N-(2-trifluoromethyl-benzyl)-acetamide], for which the pEC50 was 7.43.
`CC(C)(C)NCCN(Cc1ncccc1Cl)C(=O)CNc1cccc2c1CN(CC1CC1)CCO2` [Example 92, N-(2-tert-Butylamino-ethyl)-N-(3-chloro-pyridin-2-ylmethyl)-2-(4-cyclopropylmethyl-2,3,4,5-tetrahydro-benzo[f][1,4]oxazepin-6-ylamino)-acetamide] had a pEC50 of 8.00.
`CN(C)CCN(Cc1ccccc1C(F)(F)F)C(=O)CNc1cccc2c1CCN(CC1CC1)CC2` [Example 27, 2-(3-Cyclopropylmethyl-2,3,4,5-tetrahydro-1H-benzo[d]azepin-6-ylamino)-N-(2-dimethylamino-ethyl)-N-(2-trifluoromethyl-benzyl)-acetamide] had a pEC50 of 8.70.
The figure for `CNCCN(Cc1ccccc1C(F)(F)F)C(=O)CNc1cccc2c1C(=O)N(CC1CC1)CCO2` [Example 36, 2-(4-Cyclopropylmethyl-5-oxo-2,3,4,5-tetrahydro-benzo[f][1,4]oxazepin-6-ylamino)-N-(2-methylamino-ethyl)-N-(2-trifluoromethyl-benzyl)-acetamide] is 7.92; for `CN(C)CCN(Cc1ccccc1C(F)(F)F)C(=O)CNc1cccc2c1CN(CC1CC1)CCO2` [Example 22, 2-(4-Cyclopropylmethyl-2,3,4,5-tetrahydro-benzo[f][1,4]oxazepin-6-ylamino)-N-(2-dimethylamino-ethyl)-N-(2-trifluoromethyl-benzyl)-acetamide] it is 8.40.
The figure for `Cc1ccnc(CN(CCN(C)C)C(=O)CNc2cccc3c2OCCN(CC(C)C)C3)c1` [Example 14, N-(2-Dimethylamino-ethyl)-2-(4-isobutyl-2,3,4,5-tetrahydro-benzo[f][1,4]oxazepin-9-ylamino)-N-(4-methyl-pyridin-2-ylmethyl)-acetamide] is 7.12; for `CCN1CCOc2c(NCC(=O)N(CCN(C)C)Cc3ccccc3C(F)(F)F)cccc2C1=O` [Example 41, N-(2-Dimethylamino-ethyl)-2-(4-ethyl-5-oxo-2,3,4,5-tetrahydro-benzo[f][1,4]oxazepin-9-ylamino)-N-(2-trifluoromethyl-benzyl)-acetamide] it is 7.66.
Next, `CN(C)CCN(Cc1ncccc1Cl)C(=O)CNc1cccc2c1N(C)CCN(CC1CC1)C2=O` [Example 45, N-(3-Chloro-pyridin-2-ylmethyl)-2-(4-cyclopropylmethyl-1-methyl-5-oxo-2,3,4,5-tetrahydro-1H-benzo[e][1,4]diazepin-9-ylamino)-N-(2-dimethylamino-ethyl)-acetamide]: 7.30; `CC(C)CN1CCOc2c(cccc2NCC(=O)N(CCN(C)C2CC2)Cc2ccccc2C(F)(F)F)C1` [Example 10, N-[2-(Cyclopropyl-methyl-amino)-ethyl]-2-(4-isobutyl-2,3,4,5-tetrahydro-benzo[f][1,4]oxazepin-9-ylamino)-N-(2-trifluoromethyl-benzyl)-acetamide]: 7.24.
With `CC(=O)N1CCc2cccc(OCC(=O)N(CCN(C)C)Cc3ccccc3C(F)(F)F)c2CC1` [Example 25, 2-(3-Acetyl-2,3,4,5-tetrahydro-1H-benzo[d]azepin-6-yloxy)-N-(2-dimethylamino-ethyl)-N-(2-trifluoromethyl-benzyl)-acetamide], the pEC50 was 8.52.

What is called pEC50 is the negative decadic logarithm of the EC50, by convention in mol/L. Low values mean a high EC50, high ones a low EC50.
